How the values were obtained:
E. coli = assay: AATCC Test Method 147 qualitative antibacterial test (inhibition zone); format: cell-based, Escherichia coli (ATCC 2666)
From the text: Fabric samples of #405 (pure cotton, Testfabrics, Inc., Middlesex, N.J.) and # 7402 (cotton/polyester 35/65, Testfabrics, Inc., Middlesex, N.J.) were finished in a manner similar to that set forth in Example I. The concentration of the finishing agent used was from about 5 to 15% in the finishing of the cotton fabrics and from about 5 to 20% in the finishing of the cotton/polyester (35/65) blend fabric because of the lower concentration of cellulose in the blend. The final biocidal property was imparted onto the finished fabrics by washing them with a diluted CLOROX® solution containing 0.25% chlorine after each washing circle. Qualitative antibacterial tests were conducted according to AATCC Test Method 147.
In the AATCC Test Method 147, two pieces of chlorinated fabrics with the size of 25 mm×50 mm were placed on a nutrient agar plate which had been inoculated by five streaks of a diluted bacteria solution using a 4 mm inoculating loop. The diluted bacteria solution was prepared by transferring 1.0 milliliter of 24 hour broth culture into 9.0 milliliter of sterile distilled water. The agar plate was incubated at 37° C. for 18-24 hours. The minimum width of inhibition zone along a streak on either side of the test specimen are measured. Table I sets forth the qualitative biocidal evaluations of the finished fabrics with different concentration of the agent Anti-1.

S. aureus = assay: AATCC Test Method 100 quantitative antibacterial test (bacterial reduction); format: cell-based, Staphylococcu aureus (ATCC 5368); details: for Bacterial Reduction Rates After fifteen washings S. aur. / Bacterial Reduction Rates After five Washings S. aur. / Bacterial Reduction Rates After ten Washings S. aur. / Bacterial Reduction Rates After twenty washings S. aur.: contact time 60 min
From the text: AATCC Test Method 100 was adopted in this study. According to this test method, four pieces of staked circular fabric swatches 4.8±0.1 (about one grams) were inoculated with 1.0±0.1 milliliter of inoculum in a 250 milliliter jar. The inoculum was a nutrient broth culture containing over 1.0×10^6 clone forming units (CFU) of organisms. After the swatches were inoculated, they were neutralized by 100 milliliter of a 0.02% sodium thiosulfate solution in the jar. The contact time was the time between inoculation and neutralization. The jar was vigorously shaken and the neutralized solution was diluted in serial. The dilutions, usually 100, 101, and 102, were plated on nutrient agar and incubated for 18-24 hours at 37° C. The number of bacteria recovered from the inoculated finished fabrics was counted and compared with that from untreated fabrics. Six log reduction means the total inactivation of bacteria, and one log reduction means that finished fabrics reduced bacteria counts from 106 CFU to 105 CFU.
Finished fabrics prepared from solutions containing 1%-6% of monomethylol-5,5-dimethylhydantoin following the protocol set forth in Example 1 with pickup rates below 1% have been tested.
Fabrics finished in accordance with the protocol set forth in Example II with Anti-2, i.e., 1,3-dimethylol-5,5-dimethylhydantoin, were also tested with AATCC test method 100, which was briefly described in Example IV. In the tests, a diluted CLOROX® solution containing 0.01 % active chlorine was used to chlorinate the finished fabrics.

[1] = #405 cotton, Anti-1 5%, add-on 1.2%
[2] = #405 cotton, Anti-1 10%, add-on 2.3%
[3] = #405 cotton, Anti-1 15%, add-on 3.1%
[4] = #7402 cotton/polyester 35/65, Anti-1 5%, add-on 0.8%
[5] = #7402 cotton/polyester 35/65, Anti-1 10%, add-on 1.4%
[6] = #7402 cotton/polyester 35/65, Anti-1 15%, add-on 1.6%
[7] = #7402 cotton/polyester 35/65, Anti-1 20%, add-on 2.0%
[8] = Anti-1 1%, #7402, take up 0.14%
[9] = Anti-1 2%, #7402, take up 0.07%
[10] = Anti-1 4%, #7402, take up 0.45%
[11] = Anti-1 6%, #7402, take up 0.70%

CC1(C)NC(=O)N(CO)C1=O [Anti-1, monomethylol-5,5-dimethylhydantoin]
Biocidal Results After 20 Times Washing E. coli (E. coli; [1]): >3 mm
Biocidal Results After 50 Times Washing E. coli (E. coli; [1]): >1 mm
Biocidal Results After 20 Times Washing E. coli (E. coli; [2]): >8 mm
Biocidal Results After 50 Times Washing E. coli (E. coli; [2]): >3 mm
Biocidal Results After 20 Times Washing E. coli (E. coli; [3]): kill all
Biocidal Results After 50 Times Washing E. coli (E. coli; [3]): >4 mm
Biocidal Results After 20 Times Washing E. coli (E. coli; [4]): >3 mm
Biocidal Results After 50 Times Washing E. coli (E. coli; [4]): >1 mm
Biocidal Results After 20 Times Washing E. coli (E. coli; [5]): >3 mm
Biocidal Results After 50 Times Washing E. coli (E. coli; [5]): >2 mm
Biocidal Results After 20 Times Washing E. coli (E. coli; [6]): kill all
Biocidal Results After 50 Times Washing E. coli (E. coli; [6]): >2 mm
Biocidal Results After 20 Times Washing E. coli (E. coli; [7]): kill all
Biocidal Results After 50 Times Washing E. coli (E. coli; [7]): >3 mm
Bacterial reduction rates on contact time 0 min S. aureus (S. aureus; Anti-1 1%, #400, take up 0.65%): No
Bacterial reduction rates on contact time 30 min S. aureus (S. aureus; Anti-1 1%, #400, take up 0.65%): 1 log
Bacterial reduction rates on contact time 60 min S. aureus (S. aureus; Anti-1 1%, #400, take up 0.65%): No
Bacterial reduction rates on contact time 0 min S. aureus (S. aureus; [8]): No
Bacterial reduction rates on contact time 30 min S. aureus (S. aureus; [8]): No
Bacterial reduction rates on contact time 60 min S. aureus (S. aureus; [8]): No
Bacterial reduction rates on contact time 0 min S. aureus (S. aureus; Anti-1 2%, #400, take up 0.03%): 1 log
Bacterial reduction rates on contact time 30 min S. aureus (S. aureus; Anti-1 2%, #400, take up 0.03%): 6 log
Bacterial reduction rates on contact time 60 min S. aureus (S. aureus; Anti-1 2%, #400, take up 0.03%): 6 log
Bacterial reduction rates on contact time 0 min S. aureus (S. aureus; [9]): No
Bacterial reduction rates on contact time 30 min S. aureus (S. aureus; [9]): 1 log
Bacterial reduction rates on contact time 60 min S. aureus (S. aureus; [9]): 6 log
Bacterial reduction rates on contact time 0 min S. aureus (S. aureus; Anti-1 4%, #400, take up 0.47%): 6 log
Bacterial reduction rates on contact time 30 min S. aureus (S. aureus; Anti-1 4%, #400, take up 0.47%): 6 log
Bacterial reduction rates on contact time 60 min S. aureus (S. aureus; Anti-1 4%, #400, take up 0.47%): 6 log
Bacterial reduction rates on contact time 0 min S. aureus (S. aureus; [10]): 6 log
Bacterial reduction rates on contact time 30 min S. aureus (S. aureus; [10]): 6 log
Bacterial reduction rates on contact time 60 min S. aureus (S. aureus; [10]): 6 log
Bacterial reduction rates on contact time 0 min S. aureus (S. aureus; Anti-1 6%, #400, take up 0.70%): 6 log
Bacterial reduction rates on contact time 30 min S. aureus (S. aureus; Anti-1 6%, #400, take up 0.70%): 6 log
Bacterial reduction rates on contact time 60 min S. aureus (S. aureus; Anti-1 6%, #400, take up 0.70%): 6 log
Bacterial reduction rates on contact time 0 min S. aureus (S. aureus; [11]): 6 log
Bacterial reduction rates on contact time 30 min S. aureus (S. aureus; [11]): 6 log
Bacterial reduction rates on contact time 60 min S. aureus (S. aureus; [11]): 6 log
Bacterial Reduction Rates After fifteen washings S. aur. (S. aureus; Cl 0.01%, #400, Anti-1 4%): 6 log
Bacterial Reduction Rates After five Washings S. aur. (S. aureus; Cl 0.01%, #400, Anti-1 4%): 6 log
Bacterial Reduction Rates After ten Washings S. aur. (S. aureus; Cl 0.01%, #400, Anti-1 4%): 6 log
Bacterial Reduction Rates After twenty washings S. aur. (S. aureus; Cl 0.01%, #400, Anti-1 4%): 6 log
Bacterial Reduction Rates After fifteen washings S. aur. (S. aureus; Cl 0.01%, #7409, Anti-1 4%): 6 log
Bacterial Reduction Rates After five Washings S. aur. (S. aureus; Cl 0.01%, #7409, Anti-1 4%): 6 log
Bacterial Reduction Rates After ten Washings S. aur. (S. aureus; Cl 0.01%, #7409, Anti-1 4%): 6 log
Bacterial Reduction Rates After twenty washings S. aur. (S. aureus; Cl 0.01%, #7409, Anti-1 4%): 6 log
Bacterial Reduction Rates After fifteen washings S. aur. (S. aureus; Cl 0.1%, #400, Anti-1 4%): 6 log
Bacterial Reduction Rates After five Washings S. aur. (S. aureus; Cl 0.1%, #400, Anti-1 4%): 6 log
Bacterial Reduction Rates After ten Washings S. aur. (S. aureus; Cl 0.1%, #400, Anti-1 4%): 6 log
Bacterial Reduction Rates After twenty washings S. aur. (S. aureus; Cl 0.1%, #400, Anti-1 4%): 0 log
Bacterial Reduction Rates After fifteen washings S. aur. (S. aureus; Cl 0.1%, #7409, Anti-1 4%): 6 log
Bacterial Reduction Rates After five Washings S. aur. (S. aureus; Cl 0.1%, #7409, Anti-1 4%): 6 log
Bacterial Reduction Rates After ten Washings S. aur. (S. aureus; Cl 0.1%, #7409, Anti-1 4%): 6 log
Bacterial Reduction Rates After twenty washings S. aur. (S. aureus; Cl 0.1%, #7409, Anti-1 4%): 6 log

From patent US6770287B1, “Biocidal cellulosic material” (The Regents of the University of California, priority 2000, dated 2004)
